# Source: patent publication US20260076974A1, “COMPOSITIONS FOR PREVENTING AND TREATING INFECTION COMPRISING AN ARTIFICIAL SWEETENER” (Brunel University London, priority 2022, published 2026)
# Where two headings read alike, the source gives them in different places.
# Tests used:
# [1] = tested on: Enterobacter cloacae
# [2] = tested on: Klebsiella pneumoniae
# Source text: (§7) N=3 biological triplicate, each with technical triplicates).
# [3] = tested on: A. baumannii AB5075; experiment: Growth inhibition assay in LB medium (OD600); assay type: cell-based, Acinetobacter baumannii
# [4] = tested on: P. aeruginosa PA14; experiment: Growth inhibition assay in nutrient medium (OD600); assay type: cell-based, Pseudomonas aeruginosa
# [5] = tested on: A. baumannii AB5075; conditions: […] ace-K (sub-MIC), two hours, compared to untreated control
# Method: Cultures were incubated at 37° C. and 180 rpm shaking for two hours. Following incubation 10 μL of a 1 mg/mL DAPI solution and 10 μL of a 5 mg/mL solution of Nile Red were added to each flask before returning to the incubator for 30 mins. Once stained, cultures were centrifuged at 5000 rpm for five minutes and the supernatant discarded. Pellets were resuspended in 10 ml of sterile 4% formaldehyde in PBS and incubated in the dark for 30 mins to fix. Once fixed, samples were centrifuged at 5000 rpm and pellets were washed twice with 10 mL sterile PBS. After washing pellets were resuspended in 10 ml of sterile PBS and 10 μL of the cell suspension was spotted onto a glass slide and allowed to air dry in the dark. Three spots were prepared per flask.
# [6] = tested on: P. aeruginosa PA14; conditions: established 18 hour biofilm, 8.85% ace-K, 24 hours
# Method: (§1) Plates were incubated for 18 hours at 37° C. and 180 rpm to allow biofilms to form. Following incubation, growth medium was removed from the wells and biofilms were washed three times with 200 μL of sterile PBS to remove any unbound planktonic cells. […] Plates were incubated for a further 24 hours at 37° C. and 180 rpm. Following this treatment biofilms were stained with 0.1% crystal violet as detailed above. Reduction in biofilm was represented as a percentage reduction compared to the control.
# (§2) To assess the ability of artificial sweeteners to disperse biofilms, overnight cultures were diluted in 96-well plates to OD600 0.5-0.1 in growth medium. Plates were incubated for 18 h at 37° C. and 180 rpm to allow biofilms to form. Following incubation growth medium was removed and wells washed three times with 200 μl of sterile PBS to remove any unattached cells. Fresh growth medium supplemented with artificial sweetener or an appropriate vehicle control was added to the wells. Plates were incubated for a further 24 h at 37° C. and 180 rpm. Following this treatment biofilms were stained with 0.1% crystal violet as detailed above. Biofilm dispersal was represented as a percentage reduction compared with the control.
# [7] = tested on: A. baumannii AB5075; conditions: established 18 hour biofilm, 8.85% ace-K, 24 hours
# Method: as §1, §2
# [8] = tested on: A. baumannii; experiment: Crystal violet biofilm formation assay / minimum biofilm inhibition concentration; assay type: cell-based, Acinetobacter baumannii
# Method: (§3) Biofilm formation is linked to 80% of hospital-associated infections and is a major factor in the routine failure of antibiotic therapy.
# (§4) All samples were exposed to the artificial sweeteners in LB medium for 19 hours before crystal violet biofilm assay was performed. […] The data present the mean of three biological replicates±SD. *p≤0.05, *p≤0.001 versus the bacterial growth in control samples.
# (§5) All samples were exposed to artificial sweeteners for 19 hours before crystal violet biofilm assay was performed.
# [9] = tested on: Staphylococcus aureus; conditions: […] ace-K versus LB control
# [10] = tested on: E. coli
# Source text: as §7
# [11] = tested on: A. baumannii AB5075; parameters: species or system Acinetobacter baumannii; conditions: ace-K dressing applied for 1 hour
# Method: In this model, porcine skin was either burnt or lacerated and the wound infected with A. baumannii AB5075 and left for 3.5 hours to allow a biofilm to form. The dressing was applied for 1 hour and viable cells were collected after treatment. […] Samples were tested in biological triplicate with technical quadruplets.
# (8% (w/w)), potassium tetraborate (3% (w/w)), and PVA (3% ((w/w)) were added into a beaker and mixed with deionized water. The mixture was placed in a water bath and heated at 80° C. for three hours with watch glass while being swirled with a stirring rod every 1 hour. Once hydrogels had been obtained, they were placed in a petri dish with custom-made moulds.
# [12] = tested on: E. coli NCTC 13476; conditions: live cell imaging over time
# Source text: (§6) To visualise the localisation of these membrane bulges and to gain insight into the contents of the bulges, an E. coli MG1655 strain with labelled mCherry-Fis and CFP-FtsZ was used (FIG. 62CD). Fis is a small DNA-binding protein that binds to a large number of regions of the chromosome, allowing the visualisation of the […] in living cells. FtsZ is a component of the Z ring, showing future cell division sites.
# [13] = tested on: A. baumannii cells; conditions: live cell imaging over time
# Source text: as §6
# [14] = tested on: P. aeruginosa PA14; experiment: Crystal violet biofilm formation assay / minimum biofilm inhibition concentration; assay type: cell-based, Pseudomonas aeruginosa
# Method: as §3, §4, §5
# [15] = tested on: Stenotrophomonas maltophilia
# [16] = tested on: Enterococcus faecalis; conditions: […] ace-K versus LB control
# [17] = tested on: P. aeruginosa colony biofilms
# [18] = tested on: A. baumannii colony biofilms
# [19] = tested on: A. baumannii
# Source text: Motility is a central facet of bacterial virulence and facilitates bacterial dissemination to the blood stream or other sites within an infected host. […] To validate the gene expression data, we performed twitching assays at a range of different concentrations.
# [20] = tested on: A. baumannii gene expression; conditions: |logFC|>1 and p<.05
# Method: Cells were spun down and washed in RNAlater to preserve mRNA. RNA was isolated using a Qiagen RNAeasy Kit with column DNAase digestion. RNA integrity was determined using a Bioanalyzer. Samples were further processed for RNA sequencing on an Illumina MiSeq with 12 million reads per sample. Quality control and adapter trimming was performed with bcl2fastq.
# [21] = tested on: A. baumannii AB5075
# [22] = tested on: PpilA promoter; conditions: 0, […], 0.66% or […] ace-K, 2 h
# Method: The expression from the PpilA promoter was measured using a miniTn7T-based insertion bearing a PpilA::gfp transcriptional fusion (AB5075/miniTn7T-zeo-pilA::gfpmut3). An AB5075/miniTn7T-zeo-gfpmut3 strain, bearing the empty miniTn7T backbone, was used as a control. […] Cultures were incubated for 2 h at 37° C., 180 rpm. Then, samples were withdrawn from the cultures, washed with PBS and eventually resuspended in PBS. Two technical repeats of each sample were allocated in a 96-well plate and their OD600 and GFP fluorescence (485 nm excitation, 535 nm emission) were measured. The fluorescence readings were normalised by their respective OD600 and the baseline fluorescence obtained from the empty transposon control was subtracted from that obtained with the strain bearing the PpilA::gfpmut3 the promoter fusion measurements.
# [23] = LB with ace-K plus Mg2+ and Ca2+
# [24] = LB with sweetener plus Mg2+ and Ca2+
# [25] = 3% (w/v) sucralose, […] (w/v) ace-K, LB medium, 19 hours
# [26] = submerged in 8.85% (w/v) ace-K solution for 1 hour
# [27] = surgical gauze soaked in 8.85% ace-K, 1 hour, compared to water-soaked dressing
# [28] = in the presence of divalent cations (CaCl2 2 mM and MgSO4 1 mM)
compound,measurement,setting,value
"CC1=CC(=O)[N-]S(=O)(=O)O1.[K+] [ace-K, potassium salt of 6-methyl-1,2,3-oxathiazine-4 (3H)-one 2,2-dioxide]",effect of Mg2+ and Ca2+ cation supplementation on the growth inhibitory effect,[1]; [23],at least partially reverse
same,growth in LB including ace-K,[1]; […] ace-K versus LB control,significantly inhibits the growth
same,effect of Mg2+ and Ca2+ cation supplementation on the growth inhibitory effect,[2]; [23],at least partially reverse
same,growth in LB including ace-K,[2]; […] ace-K versus LB control,significantly inhibits the growth
same,concentration showing significant / effective growth inhibition,[3],≥ 0.89%
same,effect of Mg2+ and Ca2+ cation supplementation on the growth inhibitory effect,[3]; [24],at least partially reverse
same,bacterial growth in the presence of sweetener,"[3]; […] sweetener, 19 hours, LB medium",inhibit the growth
same,concentration at which growth inhibition plateaus; no growth above,[3]; ace-K 0.09-7.08%,around 5%
same,concentration showing significant / effective growth inhibition,[4],≥ 0.89%
same,effect of Mg2+ and Ca2+ cation supplementation on the growth inhibitory effect,[4]; [24],at least partially reverse
same,bacterial growth in the presence of sweetener,"[4]; […] sweetener, 19 hours, 37° C.",inhibit the growth
same,concentration at which growth inhibition plateaus; no growth above,[4]; ace-K 0.09-7.08%,around 5%
same,nuclear dye uptake,[5],significant increases
same,reduction of total biofilm biomass compared to the control,[6],69.7%
same,reduction of total biofilm biomass compared to the control,[7],48.8%
same,concentration with significant impact on / inhibition of biofilm formation,[8],0.09%
same,biofilm formation,[8]; [25],significantly inhibit biofilm formation
same,growth in LB including ace-K,[9],"minor reduction in growth in the presence of ace-K, but this was not significant"
same,effect of Mg2+ and Ca2+ cation supplementation on the growth inhibitory effect,[10]; [23],at least partially reverse
same,growth in LB including ace-K,[10]; […] ace-K versus LB control,significantly inhibits the growth
same,log reduction in viable cells versus the water control,[11]; burn model,2.16 log
same,log reduction in viable cells versus the water control,[11]; laceration model,0.5 log
same,cell morphology upon ace-K exposure,[12],"filamented, extending to many times their original size before eventually, forming characteristic membrane bulges and ultimately lysing"
same,cell morphology upon ace-K exposure,[13],"stop dividing and lose structural integrity, swelling in size rapidly"
same,biofilm formation,[14]; [25],significantly inhibit biofilm formation
same,concentration resulting in almost complete abolition of biofilm formation,[14]; 19 hours exposure,1.77%
same,effect of Mg2+ and Ca2+ cation supplementation on the growth inhibitory effect,[15]; [23],at least partially reverse
same,growth in LB including ace-K,[15]; […] ace-K versus LB control,significantly inhibits the growth
same,growth in LB including ace-K,[16],significantly inhibits the growth
same,number of viable bacteria within the biofilm after ace-K wash,[17]; [26],significant reduction
same,bacteria numbers after ace-K augmented dressing,[17]; [27],significant reductions
same,number of viable bacteria within the biofilm after ace-K wash,[18]; [26],significant reduction
same,bacteria numbers after ace-K augmented dressing,[18]; [27],significant reductions
same,concentration with significant reduction in bacterial twitching motility,[19],≥ 0.33%
same,twitching motility over increasing concentrations,"[19]; AB5075, ace-K",dose-dependent decrease
same,twitching motility over increasing concentrations,"[19]; strains AB0057 and BAA 747, ace-K",dose-dependent decrease
same,number of genes significantly differentially expressed,[20],464 genes
same,cell viability,[21]; in the presence of cations when supplementing with ace-K,not affected
same,concentration reaching transformation abolition,[21]; [28],≥ 0.66%
same,concentration with significant drop in transformability,[21]; [28],0.33%
same,concentration at which transformation is completely abolished,[21]; without added cations,≥ 0.66%
same,pilA expression (GFP fluorescence normalised by OD600),[22],clear dose dependent response
